# Experimental data from ChEMBL document CHEMBL1152287, “Structure-activity relationships of acetylcholinesterase noncovalent inhibitors based on a polyamine backbone. 4. Further investigation on the inner spacer” (J Med Chem, 2008).
# Columns and labels:
# Cholinesterase = Cholinesterase (Homo sapiens, UniProt P06276); assay: Inhibition of human serum BChE by Ellman's assay
# Acetylcholinesterase = Acetylcholinesterase (Homo sapiens, UniProt P22303); assay: Inhibition of human recombinant AChE by Ellman's assay
# Acetylcholinesterase, sequence (P22303 whole entry): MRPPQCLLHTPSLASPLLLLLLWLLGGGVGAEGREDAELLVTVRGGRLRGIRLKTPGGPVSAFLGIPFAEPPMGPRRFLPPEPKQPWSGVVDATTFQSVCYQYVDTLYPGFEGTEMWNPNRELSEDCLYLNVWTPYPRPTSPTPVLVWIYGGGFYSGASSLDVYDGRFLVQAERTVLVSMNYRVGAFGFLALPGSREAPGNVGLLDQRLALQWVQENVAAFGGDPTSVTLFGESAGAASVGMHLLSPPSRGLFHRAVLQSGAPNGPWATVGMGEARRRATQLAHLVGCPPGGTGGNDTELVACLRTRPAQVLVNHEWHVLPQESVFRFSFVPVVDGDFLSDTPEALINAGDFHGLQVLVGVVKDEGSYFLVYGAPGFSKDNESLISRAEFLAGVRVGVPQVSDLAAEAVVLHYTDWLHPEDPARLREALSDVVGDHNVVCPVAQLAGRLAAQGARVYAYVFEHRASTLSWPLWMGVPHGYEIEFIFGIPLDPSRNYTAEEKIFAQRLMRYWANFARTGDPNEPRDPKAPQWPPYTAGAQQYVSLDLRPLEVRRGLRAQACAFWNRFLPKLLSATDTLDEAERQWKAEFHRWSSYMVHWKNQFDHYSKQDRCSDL
# [1] = molecular target: T1, Amyloid-beta precursor protein (Homo sapiens, UniProt P05067); assay: Inhibition of self-induced amyloid beta (1-40) aggregation at 10 uM by thioflavin T formation assay
# T1 sequence (P05067 whole entry): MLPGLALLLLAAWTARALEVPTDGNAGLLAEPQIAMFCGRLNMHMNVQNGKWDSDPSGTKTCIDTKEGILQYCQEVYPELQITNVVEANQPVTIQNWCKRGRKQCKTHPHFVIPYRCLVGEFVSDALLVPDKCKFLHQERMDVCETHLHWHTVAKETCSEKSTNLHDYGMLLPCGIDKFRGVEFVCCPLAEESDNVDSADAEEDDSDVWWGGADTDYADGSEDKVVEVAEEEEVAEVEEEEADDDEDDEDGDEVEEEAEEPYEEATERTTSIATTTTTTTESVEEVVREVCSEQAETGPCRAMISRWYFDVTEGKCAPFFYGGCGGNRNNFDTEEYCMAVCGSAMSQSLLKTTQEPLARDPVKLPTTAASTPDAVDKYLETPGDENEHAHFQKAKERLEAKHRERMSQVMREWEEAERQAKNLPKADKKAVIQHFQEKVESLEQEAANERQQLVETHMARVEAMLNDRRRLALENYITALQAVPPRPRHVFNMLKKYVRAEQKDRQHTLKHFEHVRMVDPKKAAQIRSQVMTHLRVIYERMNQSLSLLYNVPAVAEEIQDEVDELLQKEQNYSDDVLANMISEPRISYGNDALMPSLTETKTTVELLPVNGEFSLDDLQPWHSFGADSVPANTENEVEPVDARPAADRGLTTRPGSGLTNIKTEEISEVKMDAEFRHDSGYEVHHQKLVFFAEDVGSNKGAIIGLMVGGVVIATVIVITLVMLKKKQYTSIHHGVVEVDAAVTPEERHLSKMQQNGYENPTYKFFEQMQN
# [2] = molecular target: T1, Amyloid-beta precursor protein; assay: Inhibition of self-induced amyloid beta (1-40) aggregation by thioflavin T formation assay
# Cholinesterase, sequence (P06276 whole entry): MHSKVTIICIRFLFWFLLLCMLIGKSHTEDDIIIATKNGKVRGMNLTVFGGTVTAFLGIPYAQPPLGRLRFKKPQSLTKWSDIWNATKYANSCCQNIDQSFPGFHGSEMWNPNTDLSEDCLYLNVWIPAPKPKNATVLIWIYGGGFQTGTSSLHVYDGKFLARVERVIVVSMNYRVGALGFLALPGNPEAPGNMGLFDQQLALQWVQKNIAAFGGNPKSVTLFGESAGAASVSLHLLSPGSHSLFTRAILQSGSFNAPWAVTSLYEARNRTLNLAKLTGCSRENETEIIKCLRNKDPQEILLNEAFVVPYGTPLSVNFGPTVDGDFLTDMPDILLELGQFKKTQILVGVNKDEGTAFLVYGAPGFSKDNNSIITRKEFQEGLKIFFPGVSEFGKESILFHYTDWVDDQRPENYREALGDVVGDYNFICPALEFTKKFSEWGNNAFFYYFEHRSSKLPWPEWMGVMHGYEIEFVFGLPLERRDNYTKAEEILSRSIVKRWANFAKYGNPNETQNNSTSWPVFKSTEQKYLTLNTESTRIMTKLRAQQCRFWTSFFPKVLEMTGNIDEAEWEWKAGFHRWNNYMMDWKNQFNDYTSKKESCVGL
Compound,IC50 (Cholinesterase) [µM],IC50 (Acetylcholinesterase) [µM],inhibition [1] [%],IC50 [2] [µM]
CCN(CCCCCCN1CCN(CCCCCCN(CC)Cc2ccccc2OC)C(=O)C1=O)Cc1ccccc1OC,10.3,0.0689,,
COc1ccccc1CN(C)CCCCCC(=O)N(C)CCCCCCCCN(C)C(=O)CCCCCN(C)Cc1ccccc1OC,,,20.3,
CCN(CCCCCC(=O)N1CCN(C(=O)CCCCCN(CC)Cc2ccccc2OC)CC1)Cc1ccccc1OC,10.7,0.0257,< 5,
CCN(CCCCCCn1c(=O)c(=O)n(CCCCCCN(CC)Cc2ccccc2OC)c2ccccc21)Cc1ccccc1OC,0.0958,0.00141,8.8,
CCN(CCCCCCN1C(=O)c2ccc(-c3ccc4c(c3)C(=O)N(CCCCCCN(CC)Cc3ccccc3OC)C4=O)cc2C1=O)Cc1ccccc1OC,0.293,0.014,16.5,
CCN(CCCCCC(=O)N[C@H]1CCCC[C@H]1NC(=O)CCCCCN(CC)Cc1ccccc1OC)Cc1ccccc1OC,30.8,4.16,,
CCN(CCCCCCN1CCN(CCCCCCN(CC)Cc2ccccc2OC)C1=O)Cc1ccccc1OC,0.876,0.0724,< 5,
CCN(CCCCCC(=O)N1CCC(C2CCN(C(=O)CCCCCN(CC)Cc3ccccc3OC)CC2)CC1)Cc1ccccc1OC,,,13.7,
CCN(CCCCCC(=O)N[C@H]1CC[C@H](NC(=O)CCCCCN(CC)Cc2ccccc2OC)CC1)Cc1ccccc1OC,25.3,8.55,,
CCN(CCCCCCn1c(=O)c2cc3c(=O)n(CCCCCCN(CC)Cc4ccccc4OC)c(=O)c3cc2c1=O)Cc1ccccc1OC,3,0.0077,< 5,
CCN(CCCCCCN1C(=O)c2cccc3cccc(c23)C1=O)Cc1ccccc1OC,0.416,0.0535,< 5,
CCN(CCCCCC(=O)N[C@H]1CCCC[C@@H]1NC(=O)CCCCCN(CC)Cc1ccccc1OC)Cc1ccccc1OC (racemic),36.8,5.47,,
CCN(CCCCCC(=O)N1Cc2ccc3c4c(ccc(c24)C1)CN(C(=O)CCCCCN(CC)Cc1ccccc1OC)C3)Cc1ccccc1OC,1.04,0.00483,12.7,
CCN(CCCCCCN1CC(=O)N(CCCCCCN(CC)Cc2ccccc2OC)CC1=O)Cc1ccccc1OC,2.09,0.0159,4.8,
CCN(CCCCCCN1C(=O)c2ccc3c4c(ccc(c24)C1=O)C(=O)N(CCCCCCN(CC)Cc1ccccc1OC)C3=O)Cc1ccccc1OC,1.91,0.00037,54.5,9.69
